In ChEMBL document CHEMBL5244223, “l,8-Naphthalimide based DNA intercalators and anticancer agents. A systematic review from 2007 to 2017” (Eur J Med Chem, 2018):

Columns and labels:
Aspergillus niger = test: Antifungal activity against Aspergillus niger MTCC 282 assessed as zone of inhibition at 100 ug/ml by well diffusion assay; format: functional; settings: read-out: IZ
[1] = test system: Staphylococcus epidermidis; test: Antibacterial activity against Staphylococcus epidermidis MTCC 435 assessed as zone of inhibition at 50 ug/ml by well diffusion assay; format: functional; settings: read-out: IZ
Candida albicans = test: Antifungal activity against Candida albicans MTCC 227 assessed as zone of inhibition at 100 ug/ml by well diffusion assay; format: functional; settings: read-out: IZ
Escherichia coli = test: Antibacterial activity against Escherichia coli MTCC 443 assessed as zone of inhibition at 50 ug/ml by well diffusion assay; format: functional; settings: read-out: IZ
Staphylococcus aureus = test: Antibacterial activity against Staphylococcus aureus MTCC 96 assessed as zone of inhibition at 50 ug/ml by well diffusion assay; format: functional; settings: read-out: IZ
Rhizopus arrhizus = test: Antifungal activity against Rhizopus oryzae MTCC 262 assessed as zone of inhibition at 100 ug/ml by well diffusion assay; format: functional; settings: read-out: IZ
Pseudomonas aeruginosa = test: Antibacterial activity against Pseudomonas aeruginosa MTCC 741 assessed as zone of inhibition at 50 ug/ml by well diffusion assay; format: functional; settings: read-out: IZ
Saccharomyces cerevisiae = test: Antifungal activity against Saccharomyces cerevisiae MTCC 36 assessed as zone of inhibition at 100 ug/ml by well diffusion assay; format: functional; settings: read-out: IZ
Bel-7402 = test: Cytotoxicity against human Bel-7402 cells assessed as inhibition of cell growth incubated for 48 hrs by MTT assay; format: functional, cell-based; settings: Bel-7402, 48 h
[2] = Cytotoxicity against human QSG7701 cells assessed as inhibition of cell growth incubated for 48 hrs by MTT assay; format: toxicity, cell-based
MDA-MB-231 = test: Antiproliferative activity against human MDA-MB-231 cells assessed as inhibition of cell proliferation incubated for 48 hrs by MTT assay; format: functional, cell-based; settings: MDA-MB-231, 48 h
SMMC-7721 = test: Antiproliferative activity against human SMMC-7721 cells assessed as inhibition of cell proliferation incubated for 48 hrs by MTT assay; format: functional, cell-based; settings: SMMC-7721, 48 h
[3] = Antiproliferative activity against human QSG7701 cells assessed as inhibition of cell proliferation incubated for 48 hrs by MTT assay; format: toxicity, cell-based
K562 = test: Antiproliferative activity against human K562 cells assessed as inhibition of cell proliferation incubated for 48 hrs by MTT assay; format: functional, cell-based; settings: K562, 48 h
HCT-116 = test: Antiproliferative activity against human HCT-116 cells assessed as inhibition of cell proliferation incubated for 48 hrs by MTT assay; format: functional, cell-based; settings: HCT-116, 48 h
HepG2 = test: Antiproliferative activity against human HepG2 cells assessed as inhibition of cell proliferation incubated for 48 hrs by MTT assay; format: functional, cell-based; settings: HepG2, 48 h
HeLa = test: Antiproliferative activity against human HeLa cells assessed as inhibition of cell proliferation incubated for 48 hrs by MTT assay; format: functional, cell-based
MCF7 = test: Antiproliferative activity against human MCF7 cells assessed as inhibition of cell proliferation incubated for 48 hrs by MTT assay; format: functional, cell-based; settings: MCF7, 48 h

Structure (SMILES)	zone of inhibition at 100 µg/mL (Aspergillus niger)	zone of inhibition at 50 µg/mL [1]	zone of inhibition at 100 µg/mL (Candida albicans)	zone of inhibition at 50 µg/mL (Escherichia coli)	zone of inhibition at 50 µg/mL (Staphylococcus aureus)	zone of inhibition at 100 µg/mL (Rhizopus arrhizus)	zone of inhibition at 50 µg/mL (Pseudomonas aeruginosa)	zone of inhibition at 100 µg/mL (Saccharomyces cerevisiae)	IC50 (Bel-7402)	IC50 at 48 h [2]	further results
CCC1=C(C(=O)Oc2ccccc2)C(CN2C(=O)c3cccc4cccc(c34)C2=O)NC(=S)N1 (centres undefined)	12 mm	15 mm	12 mm	12 mm	15 mm	12 mm	12 mm	12 mm	–	–	–
CCOC(=O)C1=C(CC)NC(=O)NC1CN1C(=O)c2cccc3cccc(c23)C1=O (centres undefined)	12 mm	15 mm	12 mm	12 mm	15 mm	12 mm	12 mm	12 mm	–	–	–
NCCCNCCCCNCCCN1C(=O)c2cccc3cc([N+](=O)[O-])cc(c23)C1=O	–	–	–	–	–	–	–	–	1.06 µM	> 50 µM	–
NCCCCNCCCCNCCCCN1C(=O)c2cccc3cccc(c23)C1=O	–	–	–	–	–	–	–	–	1.06 µM	> 50 µM	–
NCCCNCCCCNCCCCN1C(=O)c2cccc3cccc(c23)C1=O	–	–	–	–	–	–	–	–	1.06 µM	> 50 µM	–
NCCCNCCCNCCCN1C(=O)c2cccc3cc(N)cc(c23)C1=O	–	–	–	–	–	–	–	–	1.06 µM	> 50 µM	–
COC(=O)C1=C(C)NC(=O)NC1CN1C(=O)c2cccc3cccc(c23)C1=O (centres undefined)	12 mm	15 mm	12 mm	12 mm	15 mm	12 mm	12 mm	12 mm	–	–	–
CN(C)CCNCC(=O)Nc1cc2c3c(cccc3c1)C(=O)N(CCN(C)C)C2=O	–	–	–	–	–	–	–	–	–	–	IC50 (MDA-MB-231): 6.42 µM; IC50 (SMMC-7721): 6.42 µM; IC50 at 48 h [3]: 6.42 µM; IC50 (K562): 6.42 µM; IC50 (HCT-116): 6.42 µM; IC50 (HepG2): 6.42 µM
Clc1ccccc1C(c1ccccc1)(c1ccccc1)n1ccnc1 [CLOTRIMAZOLE]	22 mm	–	22 mm	–	–	22 mm	–	22 mm	–	–	–
NCCCCNCCCCNCCCCN1C(=O)c2cccc3cc([N+](=O)[O-])cc(c23)C1=O	–	–	–	–	–	–	–	–	1.06 µM	> 50 µM	–
NCCCNCCCCNCCCN1C(=O)c2cccc3c(Br)ccc(c23)C1=O	–	–	–	–	–	–	–	–	1.06 µM	> 50 µM	–
CCCC1=C(C(=O)OC)C(CN2C(=O)c3cccc4cccc(c34)C2=O)NC(=O)N1 (centres undefined)	12 mm	15 mm	12 mm	12 mm	15 mm	12 mm	12 mm	12 mm	–	–	–
CN(C)CCN1C(=O)c2cccc3cc(NC(=O)NCCCNCCCCN)cc(c23)C1=O	–	–	–	–	–	–	–	–	–	–	IC50 (MDA-MB-231): > 50 µM; IC50 (SMMC-7721): > 50 µM; IC50 at 48 h [3]: > 50 µM; IC50 (K562): > 50 µM; IC50 (HCT-116): > 50 µM; IC50 (HepG2): > 50 µM
CCN(CC)CCN1C(=O)c2cccc3cc(-n4cc(-c5ccccc5)nn4)cc(c23)C1=O	–	–	–	–	–	–	–	–	–	–	IC50 (SMMC-7721): 0.3 µM; IC50 (HeLa): 0.3 µM; IC50 (MCF7): 0.3 µM
O=C1c2cccc3cc(-n4cc(-c5ccccc5)nn4)cc(c23)C(=O)N1CCN1CCNCC1	–	–	–	–	–	–	–	–	–	–	IC50 (SMMC-7721): 0.3 µM; IC50 (HeLa): 0.3 µM; IC50 (MCF7): 0.3 µM
CCCCN1C(=O)c2cccc3cc(-n4cc(-c5ccccc5)nn4)cc(c23)C1=O	–	–	–	–	–	–	–	–	–	–	IC50 (SMMC-7721): 0.3 µM; IC50 (HeLa): 0.3 µM; IC50 (MCF7): 0.3 µM
CN[C@@H]1[C@H](O[C@H]2[C@H](O[C@H]3[C@H](O)[C@@H](O)[C@H](N=C(N)N)[C@@H](O)[C@@H]3N=C(N)N)O[C@@H](C)[C@]2(O)C=O)O[C@@H](CO)[C@H](O)[C@H]1O [STREPTOMYCIN]	–	23 mm	–	29 mm	21 mm	–	24 mm	–	–	–	–
NCCCNCCCNCCCN1C(=O)c2cccc3c(Cl)ccc(c23)C1=O	–	–	–	–	–	–	–	–	1.06 µM	> 50 µM	–
CCOC(=O)C1=C(CC)NC(=S)NC1CN1C(=O)c2cccc3cccc(c23)C1=O (centres undefined)	12 mm	15 mm	12 mm	12 mm	15 mm	12 mm	12 mm	12 mm	–	–	–

Structure (SMILES)	zone of inhibition at 100 µg/mL (Aspergillus niger)	zone of inhibition at 50 µg/mL [1]	zone of inhibition at 100 µg/mL (Candida albicans)	zone of inhibition at 50 µg/mL (Escherichia coli)	zone of inhibition at 50 µg/mL (Staphylococcus aureus)	zone of inhibition at 100 µg/mL (Rhizopus arrhizus)	zone of inhibition at 50 µg/mL (Pseudomonas aeruginosa)	zone of inhibition at 100 µg/mL (Saccharomyces cerevisiae)	IC50 (Bel-7402)	IC50 at 48 h [2]	further results
O=C1c2cccc3cc(-n4ccnn4)cc(c23)C(=O)N1CCO	–	–	–	–	–	–	–	–	–	–	IC50 (SMMC-7721): 0.3 µM; IC50 (HeLa): 0.3 µM; IC50 (MCF7): 0.3 µM
CCCC1=C(C(=O)OC)C(CN2C(=O)c3cccc4cccc(c34)C2=O)NC(=S)N1 (centres undefined)	12 mm	15 mm	12 mm	12 mm	15 mm	12 mm	12 mm	12 mm	–	–	–
NCCCCNCCCCNCCCCN1C(=O)c2cccc3c(Cl)ccc(c23)C1=O	–	–	–	–	–	–	–	–	1.06 µM	> 50 µM	–
CN(C)CCN1C(=O)c2cccc3cc(NC(=O)CNCCCCNCCCN)cc(c23)C1=O	–	–	–	–	–	–	–	–	–	–	IC50 (MDA-MB-231): 6.42 µM; IC50 (SMMC-7721): 6.42 µM; IC50 at 48 h [3]: 6.42 µM; IC50 (K562): 6.42 µM; IC50 (HCT-116): 6.42 µM; IC50 (HepG2): 6.42 µM
COC(=O)C1=C(C)NC(=S)NC1CN1C(=O)c2cccc3cccc(c23)C1=O (centres undefined)	12 mm	15 mm	12 mm	12 mm	15 mm	12 mm	12 mm	12 mm	–	–	–
CCN(CC)CCN1C(=O)c2cccc3cc(-n4ccnn4)cc(c23)C1=O	–	–	–	–	–	–	–	–	–	–	IC50 (SMMC-7721): 0.3 µM; IC50 (HeLa): 0.3 µM; IC50 (MCF7): 0.3 µM
NCCCNCCCCNCCCN1C(=O)c2cccc3cc(N)cc(c23)C1=O	–	–	–	–	–	–	–	–	1.06 µM	> 50 µM	–
CCC1=C(C(=O)Oc2ccccc2)C(CN2C(=O)c3cccc4cccc(c34)C2=O)NC(=O)N1 (centres undefined)	12 mm	15 mm	12 mm	12 mm	15 mm	12 mm	12 mm	12 mm	–	–	–
CCC1=C(C(=O)OC(F)(F)F)C(CN2C(=O)c3cccc4cccc(c34)C2=O)NC(=S)N1 (centres undefined)	12 mm	15 mm	12 mm	12 mm	15 mm	12 mm	12 mm	12 mm	–	–	–
NCCCNCCCCNCCCN1C(=O)c2cccc3c(Cl)ccc(c23)C1=O	–	–	–	–	–	–	–	–	1.06 µM	> 50 µM	–
CCC1=C(C(=O)OC(F)(F)F)C(CN2C(=O)c3cccc4cccc(c34)C2=O)NC(=O)N1 (centres undefined)	12 mm	15 mm	12 mm	12 mm	15 mm	12 mm	12 mm	12 mm	–	–	–
NCCCCNCCCCNCCCN1C(=O)c2cccc3cccc(c23)C1=O	–	–	–	–	–	–	–	–	1.06 µM	> 50 µM	–
CCC1=C(C(=O)OC)C(CN2C(=O)c3cccc4cccc(c34)C2=O)NC(=O)N1 (centres undefined)	12 mm	15 mm	12 mm	12 mm	15 mm	12 mm	12 mm	12 mm	–	–	–
NCCCCNCCCCNCCCCN1C(=O)c2cccc3cc(N)cc(c23)C1=O	–	–	–	–	–	–	–	–	1.06 µM	> 50 µM	–
CN(C)CCN1C(=O)c2cccc3cc(NC(=O)CNCCCN)cc(c23)C1=O	–	–	–	–	–	–	–	–	–	–	IC50 (MDA-MB-231): 6.42 µM; IC50 (SMMC-7721): 6.42 µM; IC50 at 48 h [3]: 6.42 µM; IC50 (K562): 6.42 µM; IC50 (HCT-116): 6.42 µM; IC50 (HepG2): 6.42 µM
CN(C)CCN1C(=O)c2cccc3cc(NC(=O)CNCCCNCCCNCCCN)cc(c23)C1=O	–	–	–	–	–	–	–	–	–	–	IC50 (MDA-MB-231): 6.42 µM; IC50 (SMMC-7721): 6.42 µM; IC50 at 48 h [3]: 6.42 µM; IC50 (K562): 6.42 µM; IC50 (HCT-116): 6.42 µM; IC50 (HepG2): 6.42 µM
CN(C)CCN1C(=O)c2cccc3cc(NC(=O)NCCCN)cc(c23)C1=O	–	–	–	–	–	–	–	–	–	–	IC50 (MDA-MB-231): > 50 µM; IC50 (SMMC-7721): > 50 µM; IC50 at 48 h [3]: > 50 µM; IC50 (K562): > 50 µM; IC50 (HCT-116): > 50 µM; IC50 (HepG2): > 50 µM
CCC1=C(C(=O)OC)C(CN2C(=O)c3cccc4cccc(c34)C2=O)NC(=S)N1 (centres undefined)	12 mm	15 mm	12 mm	12 mm	15 mm	12 mm	12 mm	12 mm	–	–	–
